Data on four compounds can be found in US20100062961A1, “Good Foaming Creamy or Paste-Like Cleansers Comprising Floor Levels of Long Chain Lipids or Lipid Mimics” (CONOPCO, INC., D/B/A UNILEVER, priority 2008, published 2010).

Data set [1] can be described thus: Solubility of lipid in 5% surfactant solution, Method B absorbance at 500 nm. It counts as physicochemical. Particulars: 5% Miracare SLB, pH 6.0, Method B.
Source text: Stock solutions of lipid in 5% surfactant solution were mixed in a beaker with an overhead mixer at a temperature above the melting point of the lipid for about an hour. The surfactant solution pH was adjusted to the desired range (usually 6 to 6.6) prior to addition of the lipid. Generally, the lipid concentrations in the stock solutions were at 1% to 2% by weight of solution. The stock solutions were allowed to cool to room temperature. These stock solutions were well above the solubility limit of the lipid as evidenced by considerable cloudiness. The stock solution was gently stirred to achieve a uniform suspension of the lipid insoluble matter, and then added to several small vials (approximately 20 ml capacity) in predetermined amounts. […] In some cases, we have determined solubility by analyzing a dilution series of samples using a UV-Vis 96 spectrophotometer (Spectra Max, Model 340pc). The samples of the dilution series were pipeted into a well plate reader and inserted into the spectrophotometer, which measured absorbance at a wavelength of 500 nm. The solubility limit was determined by extrapolating the absorbance readings to the baseline.
Data set [2] is described as follows: Solubility of lipid in 5% surfactant solution, Method A visual observation. It is filed as physicochemical. From the text: (room temperature). The solubility is a function of pH, and increases with increasing pH, but the long chain fatty acids and other lipids (e.g., cholesterol and related sterols and ceramides) and lipid mimics (e.g., saturated long chain alcohols) still have limited solubility in the surfactant solutions, especially in the pH range of interest, pH less than or equal to 8. Solubility can be determined by visual observation of a series of solutions that were allowed to equilibrate at room temperature for approximately 48 hours. We also determined solubility by absorbance of light at a particular wavelength, where we have used a UV-Vis 96 spectrophotometer well plate reader (Spectra Max, 340 pc Model) with the wavelength set at 500 nm. […] The surfactant solution pH was adjusted to the desired range (usually 6 to 6.6) prior to addition of the lipid. […] In some cases, we have determined solubility by analyzing a dilution series of samples using a UV-Vis 96 spectrophotometer (Spectra Max, Model 340pc). The samples of the dilution series were pipeted into a well plate reader and inserted into the spectrophotometer, which measured absorbance at a wavelength of 500 nm. The solubility limit was determined by extrapolating the absorbance readings to the baseline. These values are reported in Table 2 as determined by Method B.

For data set [3] the following is noted: typical anionic surfactant; cited from earlier work.
Data set [4] is described as follows: Krafft point: lowest temperature at which cloudiness is observed in a 1% by weight surfactant solution. It is filed as physicochemical. Particulars: 1% by weight solution; upper bound, solution observed clear at stated temperature. From the text:
The Krafft temperature is the minimum temperature at which surfactants form micelles. […] Below the Krafft temperature, there is no value for the critical micelle concentration (CMC), i.e., surfactant micelles will not form. A portion of the surfactant exists as a precipitate and the mixture of surfactant and water will appear cloudy or have an obvious phase settled at the bottom of a sample below the Krafft temperature. We consider only surfactants or mixtures of surfactants with Krafft temperatures at or below 20° C., so it suffices to verify that the surfactant mixtures of interest are completely soluble at 20° C. We verified this for the commercial surfactant solutions of interest. In particular, we have verified that the Krafft temperature for mixtures of sodium lauryl-1-ether sulfate and cocoamidopropyl betaine, and for mixtures of the commercial blend known as Miracare SLB lies below 20° C.
Our operational definition of Krafft point here is the lowest temperature at which cloudiness is observed in a 1% by weight solution of surfactant. The table indicates the upper bound on Krafft point, i.e., solution observed to be clear at stated temperature.

As to `CC(C)CCC[C@@H](C)[C@H]1CC[C@H]2[C@@H]3CC=C4C[C@@H](O)CC[C@]4(C)[C@H]3CC[C@]12C` [Cholesterol], the “Solubility Limit” value in data set [1] was ~5 × 10^−3 weight fraction of total solution.
Take `CCCCCCCCCCCC(=O)O` [Lauric acid]: the solubility result in data set [2] (in 5 wt. % SLES1EO/CAPBet solution) is on record as “approximately 0.08 wt. %”. Also, in data set [2] (in a 5 wt. % surfactant solution), the “solubility as share of the surfactant weight” value is given as “approximately 16%”.
For `CCCCCCCCCCCCOS(=O)(=O)[O-].[Na+]` [sodium dodecyl sulfate], the Krafft temperature in data set [3] is 18.4 °C.
As for “Sodium tridecethsulfate [Trideceth Sulfate (TDS)]”, the “Krafft T” value in data set [4] was <15 °C.
